Measured values: patent US20140120087A1, “TRIAZOLOPYRIDINES” (BAYER INTELLECTUAL PROPERTY GMBH, priority 2011, published 2014)

Key:
[1] = Hydrolytic stability assay at pH 2; format: physicochemical; conditions: buffer pH 2, 37° C., compounds of the invention
Experimental: The hydrolytic stability assay investigates the stability of a compound in an aqueous buffer system. Standard solution stability assay is run in 0.05 M Phosphate buffer at pH 7.4 (pH of blood plasma) at 37° C. As compounds in the GI tract are exposed to a wide variety of pHs any relevant pH (as pH 2 to simulate the acidic condition of the GI tract in the following experiment) can be chosen. Compounds are incubated in relevant solution at 37° C. and analyzed by HPLC immediately after incubation and after 1, 2 and 24 hrs. Degradation rate (decay in %) is calculated by relating peak areas after 1, 2 and 24 hrs to the time zero injection.
Compound is available as 10 mM in DMSO (solution 1). 2.5 μL of solution 1 is dissolved in 1 mL acetonitrile leading to solution 2. Poorly soluble compounds may demand another dilution step of solution 2 (1:5 and 1:10 respectively) in Acetonitrile). Solution 2 is incubated at 37° C. in a tempered HPLC autosampler. 1 mL buffer pH 2 is transferred into an HPLC vial. 100 μL of solution 2 is added to the buffer pH 2 solution and mixed thoroughly. Immediately after mixing the combined solution is injected into the HPLC to give the time zero injection. Injections are repeated after 1, 2 and 24 hrs.
The degradation rate (decay in %) is calculated using HPLC software Millennium and Excel respectively.

Mps-1 kinase [2] = target: T1, Mps-1 kinase (Homo sapiens, UniProt P33981); experiment: Mps-1 kinase assay with 10 μM ATP (TR-FRET)
T1 sequence (P33981 1-857): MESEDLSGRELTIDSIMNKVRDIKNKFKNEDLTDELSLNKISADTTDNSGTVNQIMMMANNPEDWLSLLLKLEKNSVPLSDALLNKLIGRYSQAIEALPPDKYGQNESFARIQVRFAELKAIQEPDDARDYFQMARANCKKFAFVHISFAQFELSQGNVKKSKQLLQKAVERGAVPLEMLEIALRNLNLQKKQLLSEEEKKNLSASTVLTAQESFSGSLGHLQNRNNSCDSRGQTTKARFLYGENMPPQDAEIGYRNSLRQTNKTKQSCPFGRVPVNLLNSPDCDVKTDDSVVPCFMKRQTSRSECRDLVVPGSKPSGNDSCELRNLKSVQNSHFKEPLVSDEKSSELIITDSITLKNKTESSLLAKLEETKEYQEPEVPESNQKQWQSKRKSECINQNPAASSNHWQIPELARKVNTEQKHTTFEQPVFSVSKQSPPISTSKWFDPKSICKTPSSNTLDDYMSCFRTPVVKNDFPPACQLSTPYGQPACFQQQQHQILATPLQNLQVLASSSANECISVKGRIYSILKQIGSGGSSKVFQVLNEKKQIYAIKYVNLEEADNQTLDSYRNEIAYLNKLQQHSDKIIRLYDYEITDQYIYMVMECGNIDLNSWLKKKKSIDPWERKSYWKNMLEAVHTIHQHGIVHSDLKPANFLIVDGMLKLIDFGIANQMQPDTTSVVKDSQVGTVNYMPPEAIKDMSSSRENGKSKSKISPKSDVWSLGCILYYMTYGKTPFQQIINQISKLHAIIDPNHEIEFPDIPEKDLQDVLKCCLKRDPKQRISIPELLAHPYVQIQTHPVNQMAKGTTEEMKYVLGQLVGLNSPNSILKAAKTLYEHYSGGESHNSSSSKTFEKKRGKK

Mps-1 kinase [3] = target: T1, Mps-1 kinase; experiment: Mps-1 kinase assay with 2 mM ATP (TR-FRET)

Row | SMILES | Hydrolysis at pH 2; Decay in % after 24 h [1] [%] | IC50 (Mps-1 kinase [2]) [nM] | IC50 (Mps-1 kinase [3]) [nM]
1 | CCOc1cc(C(=O)NCCS(C)(=O)=O)ccc1Nc1nc2ccc(-c3ccc(C(=O)NCc4ccc(F)cc4)cc3)cn2n1 [Example 02.19, 3-ethoxy-4-[(6-{4-[(4-fluorobenzyl)carbamoyl]phenyl}[1,2,4]triazolo[1,5-α]pyridin-2-yl)amino]-N-[2-(methylsulfonyl)ethyl]benzamide] | <10 | ≤ 1 | ≤ 1
2 | COc1cc(C(=O)NC(C)(C)CO)ccc1Nc1nc2ccc(-c3ccc(C(=O)NCc4ccc(F)cc4)c(C)c3)cn2n1 [Example 04.1, N-(4-fluorobenzyl)-4-[2-({4-[(1-hydroxy-2-methylpropan-2-yl)carbamoyl]-2-methoxyphenyl}amino)[1,2,4]triazolo[1,5-α]pyridin-6-yl]-2-methylbenz-amide] | <10 | ≤ 1 | 16
3 | CCOc1cc(C(=O)NCC(C)(C)O)ccc1Nc1nc2ccc(-c3ccc(C(=O)NCc4ccc(F)cc4)cc3)cn2n1 [Example 02.7, 3-ethoxy-4-[(6-{4-[(4-fluorobenzyl)carbamoyl]phenyl}[1,2,4]triazolo[1,5-α]pyridin-2-yl)amino]-N-(2-hydroxy-2-methylpropyl)benzamide] | <10 | ≤ 1 | ≤ 1
4 | CCOc1cc(C(=O)N(C)CCO)ccc1Nc1nc2ccc(-c3ccc(C(=O)NCc4ccc(F)cc4)cc3)cn2n1 [Example 02.12, 3-ethoxy-4-[(6-{4-[(4-fluorobenzyl)carbamoyl]phenyl}[1,2,4]triazolo[1,5-α]pyridin-2-yl)amino]-N-(2-hydroxyethyl)-N-methylbenzamide] | <10 | ≤ 1 | ≤ 1

Continued, values first:

Row | Hydrolysis at pH 2; Decay in % after 24 h [1] [%] | IC50 (Mps-1 kinase [2]) [nM] | IC50 (Mps-1 kinase [3]) [nM] | SMILES
5 | <10 | ≤ 1 | ≤ 1 | CCOc1cc(C(=O)N(CC)CC)ccc1Nc1nc2ccc(-c3ccc(NC(=O)Cc4ccc(F)cc4)cc3)cn2n1 [Example 01.10, 3-ethoxy-N,N-diethyl-4-{[6-(4-{[(4-fluorophenyl)acetyl]amino}phenyl)-[1,2,4]triazolo[1,5-α]pyridin-2-yl]amino}benzamide]
6 | <10 | ≤ 1 | ≤ 1 | O=C(Cc1ccc(F)cc1)Nc1ccc(-c2ccc3nc(Nc4ccc(C(=O)NCC(F)(F)F)cc4OCC(F)(F)F)nn3c2)cc1 [Example 01.27, 4-{[6-(4-{[(4-fluorophenyl)acetyl]amino}phenyl)[1,2,4]triazolo[1,5-α]-pyridin-2-yl]amino}-3-(2,2,2-trifluoroethoxy)-N-(2,2,2-trifluoroethyl)-benzamide]
7 | <10 | ≤ 1 | 2.4 | CCOc1cc(C(=O)NC(C)(C)C)ccc1Nc1nc2ccc(-c3ccc(C(=O)NCc4ccc(F)cc4)cc3)cn2n1 [Example 02.21, N-tert-butyl-3-ethoxy-4-[(6-{4-[(4-fluorobenzyl)carbamoyl]phenyl}[1,2,4]-triazolo[1,5-α]pyridin-2-yl)amino]benzamide]
8 | <10 | ≤ 1 | 1.1 | CCOc1cc(F)ccc1Nc1nc2ccc(-c3ccc(NC(=O)Cc4ccc(F)cc4)cc3)cn2n1 [Example 01.3, N-(4-{2-[(2-ethoxy-4-fluorophenyl)amino][1,2,4]triazolo[1,5-α]pyridin-6-yl}phenyl)-2-(4-fluorophenyl)acetamide]
9 | <10 | ≤ 1 | ≤ 1 | CCNC(=O)c1ccc(Nc2nc3ccc(-c4ccc(NC(=O)Cc5ccc(F)cc5)cc4)cn3n2)c(OC)c1 [Example 01.4, N-ethyl-4-{[6-(4-{[(4-fluorophenyl)acetyl]amino}phenyl)[1,2,4]triazolo[1,5-α]pyridin-2-yl]amino}-3-methoxybenzamide]
